These results are taken from patent publication US5519057A, “Ibuprofen-containing medicament” (priority 1986, dated 1996).

Series [1] deals with afferent nerves of the feet of female Rhesus monkeys. In words: Analgesia test: threshold voltage for stimulus response on electrical stimulation of the feet of female Rhesus monkeys. The series is classed as in vivo, Rhesus monkeys (macaca mulatta). The note with it: for Median percentage change in the threshold voltage: ibuprofen forms 50 mg/kg, acetylsalicylic acid 100 mg/kg; for change in the threshold voltage (in words) / increase of the threshold voltage / time to achieve the increase of threshold voltage / analgetic effect (in words): 50 mg/kg ibuprofen form. How it is done: In this test the afferent nerves of the feet of female Rhesus monkeys were electrically stimulated. For the test four adult female Rhesus monkeys (macaca mulatta) were used.
The monkeys were trained in such a way that they sat in chairs wearing an aluminium foil shoe during the test.
On the days when the test was carried out the monkeys were sat in these stools. One foot of each monkey was smeared with electrode gel and the aluminium shoe was fitted over it.
A Grass-stimulator (S 88) was connected to the monkeys via a multiple-way switch (the positive lead was connected to the aluminium shoe, the negative lead to the chair). An electrical stimulation, each time of 2 seconds duration with a frequency of 60 Hz was applied (the magnitude of stimulation was altered by adjusting the voltage supplied to the stimulator; the corresponding current was measured by means of an ammeter connected in series).
The stimulus required to achieve a stimulus threshold was determined. For this purpose the voltage was raised stepwise. The threshold voltage was taken as the lowest voltage at which bending of the toes or twisting of the foot occurred.
Before application of the medicament the animals were allowed to acclimatize for at least one hour. During this period the threshold voltage was determined at 10 minute intervals until steady readings were obtained.
Following the acclimatization period the carrier material or the active ingredient were orally administered. The threshold voltage required to effect a stimulus response in the foot of each monkey was determined at 30 minute intervals for 3 hours and then after 4 and 5 hours after administration of the active ingredient.
The observer and the stimulation apparatus were concealed behind a one-way mirror.
Between the individual tests there was an interval of at least one week.
The active ingredients 1 to 4 were prepared for oral administration by suspending them in 1.0% w/v Tragacanth. The medicaments were prepared directly before use and administered in a dose of 4 ml/kg.

Another series relates to prostaglandin synthesis. To be noted: animals with inflammation; cited from earlier work.
For series [2], the system named is humans. To be noted: cited from earlier work.
The conditions of series [3]: human, oral.
For series [4] the following is noted: metabolites excreted in the urine; cited from earlier work.
For series [5], the system named is humans. Put plainly: Analgetic activity in humans. The series is classed as in vivo. To be noted: no data given.
Where [6] appears, read: 0,5 h after oral administration.
[7] abbreviates: 1,0 h after oral administration, *P < 0,05 vs carrier (Mann-Whitney U) over (+)-S-Ibuprofen and acetylsalicylic acid.
Where [8] appears, read: 1,5 h after oral administration, *P < 0,05 vs carrier (Mann-Whitney U) over (+)-S-Ibuprofen.
The mark [9] stands for this setting: 2,0 h after oral administration.
The mark [10] stands for this setting: 2,5 h after oral administration.
Where [11] appears, read: 3,0 h after oral administration.
The mark [12] stands for this setting: 4,0 h after oral administration.
[13] abbreviates: 5,0 h after oral administration.
Where [14] appears, read: oral, 100 mg/kg acetylsalicylic acid.

For `CC(C)Cc1ccc(C(C)C(=O)O)cc1` (racemic) [(±)-ibuprofen, 2-(4-Isobutylphenyl)-propionic acid], the “Median percentage change in the threshold voltage” value (shortened to “Median percentage change”) in series [1] (setting [6]) is reported as “+6,4%”; in series [1] (setting [7]), “+8,4%”; in series [1] (setting [8]), “+15,7%”; in series [1] (setting [9]), “+15,7%”; in series [1] (setting [10]), “+8,5%”; in series [1] (setting [11]), “+18,1%”. Further, the “Median percentage change” value is recorded as “+9,7%” in series [1] (setting [12]) and “+17,0%” in series [1] (setting [13]). Besides, the “change in the threshold voltage (in words)” value (from here on “change … (in words)”) in series [1] (oral) is listed as “the level remained during the rest of the test period”. In addition, the “increase of the threshold voltage” value in series [1] (oral) is recorded as “approximately 15%”. Besides, in series [1] (oral), the “time to achieve the increase of threshold voltage” value is at most 90 min. Further, the “analgetic effect (in words)” value in series [1] (oral, listed as ibuprofen racemate, 50 mg/kg) was “analgetic activity was assumed”; in series [1] (oral, listed as racemate, 50 mg/kg), “weak but long-lasting analgetic effect”. In addition, in series [1] (oral, 50 mg/kg, every time after 90 minutes with the exception of 150 minutes), the “difference between the median change between ibuprofen racemate and carrier” value is “more than 20%”. Further, the “inhibition of prostaglandin synthesis” value in the series on prostaglandin synthesis is recorded as “effective in inhibiting prostaglandin synthesis”. Further, the “known period of action” value in the series on humans [2] (human) is recorded as “ca. 6 hours”. For the same molecule, the side effects entry in the series with humans [2] (in vivo) is reported as “usual unwanted side effects of NSAR”. Moreover, the “therapeutic effect in humans” value with humans [2] (therapy of humans) is “reduces pain, swelling and fever caused by inflammation”.
Consider `CC(C)Cc1ccc([C@@H](C)C(=O)O)cc1` [(R)-(-)-ibuprofen], for which the “Median percentage change” value in series [1] (setting [6]) is given as -5,7%; in series [1] (setting [7]), “+4,0%”; in series [1] (setting [8]), “+4,5%”; in series [1] (setting [9]), “+0,5%”; in series [1] (setting [10]) it was -4,7%; in series [1] (setting [11]), -7,0%. For the same molecule, the figures for the “Median percentage change” value in series [1] (setting [12]) and in series [1] (setting [13]) were -2,3% and -3,4%, respectively. Besides, in series [1] (oral), the “analgetic effect (in words)” value was “inactive”. Besides, the “change … (in words)” value in series [1] (oral) is recorded as “no significant change in the threshold voltage”. The “late plasma levels as % of the maximum level” value in series [3] (after the first 4 to 6 hours) was “less than 10%”. For the same molecule, the “plasma levels relative to those after administration of the (S)-(+)-form” value in series [3] (only after the first 4 to 6 hours) was “equally high or higher levels”. The “conversion to the active (S)-(+)-enantiomer in vivo” value in series [4] was “converted to the active (S)-(+)-enantiomer in vivo”.
As for `CC(C)Cc1ccc([C@H](C)C(=O)O)cc1` [(S)-(+)-ibuprofen], the “Median percentage change” value in series [1] (setting [6]) is reported as “+9,5%”; in series [1] (setting [7]), “+33,5%”; in series [1] (setting [8]), “+51,2%”; in series [1] (setting [9]), “+53,9%”; in series [1] (setting [10]) it was “+45,5%”; in series [1] (setting [11]) it was “+42,3%”. Besides, the “Median percentage change” value in series [1] (setting [12]) was “+33,7%”; in series [1] (setting [13]), “+38,2%”. Besides, in series [1] (analgesia tests on monkeys), the “amount of (S)-(+)-ibuprofen required relative to racemic ibuprofen to give a given analgetic activity” value was “less than half as much”. Further, in series [1] (oral), the “analgetic effect (in words)” value is on record as “notable analgesic effect which was maintained for several hours”. In series [1] (oral), the “change … (in words)” value is listed as “the threshold voltage remained elevated during the rest of the test period”. Further, in series [1] (oral), the “increase of the threshold voltage” value is about 50%. The “time to achieve the increase of threshold voltage” value in series [1] (oral) is 90 min. Also, in the series on humans [5], the “reduced dose requirement versus racemate shown in humans” value is reported as “could also be shown in humans”.
Consider `CC(=O)Oc1ccccc1C(=O)O` [Acetylsalicylic acid], for which the “Median percentage change” value is “+35,8%” in series [1] (setting [6]); “+56,6%” in series [1] (setting [7]); “+41,4%” in series [1] (setting [8]); “+80,4%” in series [1] (setting [9]); “+74,6%” in series [1] (setting [10]); “+72,8%” in series [1] (setting [11]). In addition, the “Median percentage change” value is on record as “+66,1%” in series [1] (setting [12]) and “+59,8%” in series [1] (setting [13]). Further, the “increase of the threshold voltage required for a stimulus response” value in series [1] (setting [14]) is on record as about 80%. In addition, in series [1] (setting [14]), the “time to achieve the level of analgesia” value was at most 2 h. Moreover, the “threshold voltage increase remaining throughout the duration of the test” value in series [1] (oral, 100 mg/kg acetylsalicylic acid, after level achieved, up to 5 h) is “above 60%”.
